{"source": "paper PMC9503459", "about": "“Antifungal Activity, Structural Stability, and Immunomodulatory Effects on Human Immune Cells of Defensin from the Lentil Lens culinaris” (Membranes, 2022)", "system": "pro-inflammatory macrophages (Mφ1) from THP-1 cells", "assay": "Cytokine response by multiplex xMAP, pro-inflammatory macrophages", "assay_type": "cell-based, human", "settings": "Mφ1 macrophages (THP-1), 2 µM, 24 h", "experimental": "Colorectal adenocarcinoma Caco-2 cell line (ATCC HTB-37) was cultured in complete DMEM/F12 (1:1) medium containing 10% fetal bovine serum (FBS, Gibco) and 1X antibiotic-antimycotic solution (1XAAS, Invitrogen, Waltham, MA, USA). The acute monocytic leukemia THP-1 line (ATCC TIB-202) was cultured in complete RPMI-1640 medium, containing 10% FBS, 1XAAS, and […]. THP-1 cells were differentiated into pro-inflammatory macrophages (Mφ1) with phorbol 12-myristate 13-acetate (Sigma-Aldrich) for 24 h and subsequently polarized with lipopolysaccharide from E. coli (Sigma-Aldrich) and rhIFN-γ (Sigma-Aldrich) for another 48 h according to previously reported protocol. All cells were cultured in a humidified CO2 incubator (5% CO2, 37 °C). Primary peripheral blood mononuclear cells (PBMCs) collected from a healthy donor were purchased from American Type Culture Collection (ATCC PCS-800-011). CD4^+ T-helper and CD8^+ T cytotoxic cells were isolated from PBMCs by magnetic separation with mouse anti-human CD4-PE (clone 13B8.2, Beckman Coulter Diagnostics, Pasadena, CA, USA) and CD8-PE (clone REA734, Miltenyi Biotec, Bergisch Gladbach, Germany), Anti-PE MicroBeads (Miltenyi Biotec), and LS Separation Columns (Miltenyi Biotec). Isolated CD4^+ and CD8^+ cells were expanded separately with Dynabeads™ Human T-Expander CD3/CD28 (Gibco, Waltham, MA, USA) in RPMI-1640 supplemented with 10% FBS, 1XAAS and 100 U/mL rh-IL-2 (Gibco). Regulatory CD4^+ FoxP3^+ T cells (Tregs) were isolated from PBMCs by magnetic separation with CD4^+CD25^+ Regulatory T Cell Isolation Kit, human (Miltenyi Biotec). Primary CD14^+ blood monocytes were isolated from PBMCs by adherence according to standard technique. Monocyte-derived mature dendritic cells (moDCs) were obtained from CD14^+ blood monocytes according to the previously reported protocol. Briefly, blood monocytes were incubated in complete RPMI-1640 medium, containing 10% FBS, 1XAAS, 800 U/mL rhGM-CSF (Sci-Store, Russia, Moscow) and 500 U/mL rhIL-4 (Sci-Store) for 3 days. Fresh complete RPMI-1640 medium with rhGM-CSF and rhIL-4 was added to the culture on day 3. On day 5, fresh complete RPMI-1640 containing 100 U/mL rhTNF-α (Sigma) as well as 800 U/mL rhGM-CSF and 500 U/mL rhIL-4 was added and the culture was incubated for another 4 days until full maturation.\nCaco-2 cells were seeded into the wells of a 48-well plate, coated with 0.1% bovine collagen (Sigma-Aldrich) for 24 h, 3 weeks before the experiment with complete DMEM/F12 (1:1) medium renewal every 2–3 days. Monocytes, moDCs, CD4^+ T-helper and CD8^+ T cytotoxic cells, Mφ1, and Regulatory CD4^+ FoxP3^+ T cells were seeded into the wells of 48-well plates in the complete RPMI-1640 medium supplemented with 10% Human AB serum (HABS, Capricorn Scientific, Ebsdorfergrund, Germany) and 1XAAS 24 h prior to the experiment; medium in Caco-2-containing wells was also replaced with the same medium. After 24 h, half of the medium in each well was replaced by fresh complete RPMI-1640 medium with 10% HABS, supplemented with 4 µM of Lc-def for the sample wells or fresh medium alone for the control wells. Cell cultures were kept in CO2-incubator (5% CO2, 37 °C) for another 24 h. Culture supernatants were collected 24 h later and stored at −70 °C degrees less than one month prior to the analytes assessment. […]", "note": "Values joined by “and” are separate entries in the source; they are usually repeats but may differ in a detail not shown here. Equal values may be shown once. No end group written: not given here.", "data": [{"substance": "Lc-def: defensin from lentil Lens culinaris seeds (UniProt:B3F051), recombinant, overexpressed in Escherichia coli (KTCENLSDSFKGPCIPDGNCNKHCKEKEHLLSGRCRDDFRCWCTRNC; disulfide (positions not given here); ends not checked; also: disulfide bonds present, pairing not given here; UniProt B3F051 28-74, looked up)", "values": [{"measurement": "EGF", "result": 2.32, "unit": "pg/mL"}, {"measurement": "Eotaxin", "result": "<3.23↓ pg/ml"}, {"measurement": "FGF-2", "result": 16.21, "unit": "pg/mL"}, {"measurement": "FLT-3L", "result": 2.27, "unit": "pg/mL"}, {"measurement": "Fractalkine", "result": "<23.19↓ pg/ml"}, {"measurement": "G-CSF", "result": 1150, "unit": "pg/mL"}, {"measurement": "GM-CSF", "result": 74.32, "unit": "pg/mL"}, {"measurement": "GROa", "result": 545.96, "unit": "pg/mL"}, {"measurement": "IFNa2", "result": 7.77, "unit": "pg/mL"}, {"measurement": "IFNg", "result": "<1.99↓ pg/ml"}, {"measurement": "IL-1RA", "result": 101.1, "unit": "pg/mL"}, {"measurement": "IL-1a", "result": 38.93, "unit": "pg/mL"}, {"measurement": "IL-1b", "result": 471.74, "unit": "pg/mL"}, {"measurement": "IL-2", "result": "<0.31↓ pg/ml"}, {"measurement": "IL-3", "result": "<0.48↓ pg/ml"}, {"measurement": "IL-4", "result": 0.92, "unit": "pg/mL"}, {"measurement": "IL-5", "result": "<0.24↓ pg/ml"}, {"measurement": "IL-6", "result": 1022, "unit": "pg/mL"}, {"measurement": "IL-7", "result": "<0.33↓ pg/ml"}, {"measurement": "IL-8", "result": ">17785↑ pg/ml"}, {"measurement": "IL-9", "result": "<1.05↓ pg/ml"}, {"measurement": "IL-10", "result": 41.17, "unit": "pg/mL"}, {"measurement": "IL-12 (p40)", "result": "<3.02↓ pg/ml"}, {"measurement": "IL-12 (p70)", "result": 4.54, "unit": "pg/mL"}, {"measurement": "IL-13", "result": 15.11, "unit": "pg/mL"}, {"measurement": "IL-15", "result": "<1.45↓ pg/ml"}, {"measurement": "IL-17A", "result": "<1.55↓ pg/ml"}, {"measurement": "IL-17E/IL-25", "result": "<20.59↓ pg/ml"}, {"measurement": "IL-17F", "result": "<16.96↓ pg/ml"}, {"measurement": "IL-18", "result": 6.51, "unit": "pg/mL"}, {"measurement": "IL-22", "result": 28.78, "unit": "pg/mL"}, {"measurement": "IL-27", "result": 40.89, "unit": "pg/mL"}, {"measurement": "IP-10", "result": "<1.56↓ pg/ml"}, {"measurement": "M-GSF", "result": "<23.75↓ pg/ml"}, {"measurement": "MCP-1", "result": "259 pg/mL and 259.04 pg/mL"}, {"measurement": "MCP-3", "result": 8.66, "unit": "pg/mL"}, {"measurement": "MDC", "result": "<0.35↓ pg/ml"}, {"measurement": "MIG", "result": "124 pg/mL and 124.97 pg/mL"}, {"measurement": "MIP-1a", "result": 2680, "unit": "pg/mL"}, {"measurement": "MIP-1b", "result": "413 pg/mL and 413.11 pg/mL"}, {"measurement": "PDGF-AA", "result": 4181, "unit": "pg/mL"}, {"measurement": "PDGF-AB/BB", "result": "<9.75↓ pg/ml"}, {"measurement": "RANTES", "result": 23.61, "unit": "pg/mL"}, {"measurement": "TGF-a", "result": 0.89, "unit": "pg/mL"}, {"measurement": "TNFa", "result": 1942, "unit": "pg/mL"}, {"measurement": "TNFb", "result": 1.95, "unit": "pg/mL"}, {"measurement": "VEGFa", "result": 48.67, "unit": "pg/mL"}, {"measurement": "sCD40L", "result": 14.8, "unit": "pg/mL"}]}]}
